Tests used:
Format in all cases: in vivo, human
[1] = test system: patients with PH post-LVAD implantation; assay: Phase 2 placebo-controlled study in PH post-LVAD implantation: right heart catheterization hemodynamics (PVR by thermodilution)
Experimental: (§1) This is a double-blind, placebo-controlled, multicenter, parallel-group Phase 2 study assessing the efficacy and safety of macitentan in PH post-LVAD implantation. Approximately 57 adult patients with PH post-LVAD implantation were randomized (1:1) to receive either macitentan 10 mg, or matching placebo, once daily orally.
After implantation of the LVAD, patients meet baseline hemodynamic criteria of PH via RHC during the last measurement prior to the first dose of drug, defined as mPAP≥25 mmHg at rest and PAWP≤18 mmHg and PVR>3 WU. Patients are randomized within 90 days of surgical implantation of LVAD and within 14 days of Baseline RHC.
• (i) Primary efficacy endpoint: The primary efficacy endpoint is PVR ratio of Week 12 to Baseline. PVR is obtained by the thermodilution method. See, Table 7 for the FAS, Table 8 for the ES, and Table 9 for the PPS.
An RHC conducted prior to signing the Informed Consent may be accepted as the Baseline RHC. Baseline RHC is performed by the thermodilution method, after LVAD implantation and prior to first dose of treatment (which occurs within 90 days post-surgical implantation of LVAD). Randomization (Visit 2) is within 14 days of Baseline RHC. Patients are excluded if they were treated with ERAs, PDE5 inhibitors, i.v., s.c., or oral prostanoids, or guanylate cyclase stimulators within 7 days prior to Baseline RHC or treatment initiation. Patients are excluded if they were treated with inhaled prostanoids (e.g., iloprost, epoprostenol), nitric oxide or i.v. inotropes or vasopressors within 24 h prior to Baseline RHC or treatment initiation. LVAD pump speed/flow rate may be adjusted during the treatment period and during the Baseline RHC.
An RHC is repeated at Week 12, or within 7 days of permanent discontinuation of treatment if prior to Week 12. The Week 12 RHC is performed by the thermodilution method, and not within 24 h of treatment with i.v. inotropes or vasopressors.
The following variables also are measured: pulse rate, PAWP, mRAP, systolic/diastolic/mean PAP, CO, and SVO2 and non-invasive mean, SBP and DBP if available. PVR is calculated. CO measurements, and PVR calculations, during both Baseline and Week 12 RHC is obtained via the thermodilution method. All primary end point calculations is based on thermodilution method-calculated PVR.
The following hemodynamic variables are calculated: PVR, TPR, and CI.
The primary efficacy variable is PVR ratio of Week 12 to Baseline. PVR [WU] is calculated as (mPAP-PAWP)/CO.
The ratio of Week 12 to Baseline PVR is log-transformed (base e) and analyzed using an analysis of covariance (ANCOVA) with a factor for treatment group and a covariate for Baseline log PVR (macitentan vs. placebo). The treatment group difference (on log scale) and its 95% CLs are estimated based on the model. The geometric mean ratio (GMR; macitentan vs. placebo) and its 95% confidence interval are obtained by exponentiation. The null hypothesis is rejected if the entire 95% confidence interval is below one.
The treatment effect is expressed as (GMR-1)×100%, where a negative value indicates a reduction of PVR in the macitentan group as compared to the placebo group.

[2] = test system: patients with PH post-LVAD implantation; assay: Phase 2 study in PH post-LVAD implantation: serum NT-proBNP; conditions: 10 mg once daily
Experimental: as §1
A blood sample is drawn at Randomization (Visit 2) and EOT (Visit 5) for the analysis of serum NT-proBNP. See, Table 12 for serum NT-proBNP at Week 12 compared to baseline for the FAS.
NT-proBNP is summarized by time point and treatment group using descriptive statistics as well as geometric means and CVs. The ratio of Week 12 to Baseline NT-proBNP is summarized similarly. The ratio versus Baseline in NT-proBNP is log-transformed and analyzed using an ANCOVA with covariates for treatment group and Baseline log NT-proBNP.

[3] = test system: patients with PH post-LVAD implantation; assay: Phase 2 study in PH post-LVAD implantation: change in WHO functional class
Experimental: as §1
Change from Baseline to Week 12 in WHO FC. See, Table 10.
WHO FC is summarized by time point and treatment group using frequency tables. Changes from Baseline in WHO FC are dichotomized as worsening (i.e., change >0) versus no change or improvement (i.e., change≤0). Worsening is analyzed using a logistic regression model with covariates for treatment group and WHO FC.

[4] = 10 mg once daily, Week 12: Baseline, FAS, n 27
[5] = 10 mg once daily, post-hoc analysis
[6] = PVR calculated by programming, ES sensitivity analysis, 10 mg once daily, Week 12
[7] = PVR calculated by programming, PPS sensitivity analysis, 10 mg once daily, Week 12
[8] = PVR calculated by programming, primary analysis, FAS, 10 mg once daily, Week 12
[9] = PVR reported by INV, sensitivity analysis, FAS, 10 mg once daily, Week 12
[10] = FAS, N = 25, baseline to Week 12

CCCNS(=O)(=O)Nc1ncnc(OCCOc2ncc(Br)cn2)c1-c1ccc(Br)cc1 [Macitentan, propylsulfamic acid [5-(4-bromo-phenyl)-6-[2-(5-bromo-pyrimidin-2-yloxy)-ethoxy]-pyrimidin-4-yl]-amide]
DPG, Least squares mean change from baseline ([1]; 10 mg once daily, Day 84 or EOT, FAS, n 23): −6.0383 mmHg
TPG, Least squares mean change from baseline ([1]; 10 mg once daily, Day 84 or EOT, FAS, n 24): −7.6521 mmHg
Change in CI, Comparison to Placebo, Difference of least squares mean ([1]; 10 mg once daily, FAS): 0.1209 L/min/m^2
Change in CO, Comparison to Placebo, Difference of least squares mean ([1]; 10 mg once daily, FAS): 0.2064 L/min
Change in DPG, Comparison to Placebo, Difference of least squares mean ([1]; 10 mg once daily, FAS): −2.7136 mmHg
Change in PAWP, Comparison to Placebo, Difference of least squares mean ([1]; 10 mg once daily, FAS): 2.3514 mmHg
Change in SvO2, Comparison to Placebo, Difference of least squares mean ([1]; 10 mg once daily, FAS): 0.4285%
Change in TPG, Comparison to Placebo, Difference of least squares mean ([1]; 10 mg once daily, FAS): −2.7022 mmHg
Change in TPR, Comparison to Placebo, Difference of least squares mean ([1]; 10 mg once daily, FAS): −0.4422 mmHg min/L
mPAP (end-expiratory mean line), Comparison to Placebo, Difference of least squares mean ([1]; 10 mg once daily, FAS): −0.3052 mmHg
mRAP, Comparison to Placebo, Difference of least squares mean ([1]; 10 mg once daily, FAS): 2.1396 mmHg
DPG at Day 84 or EOT, mean (SD) ([1]; 10 mg once daily, FAS, n 23): 3.87 (5.619) mmHg
Change in CI at Day 84 or EOT compared to Baseline, Least squares mean ([1]; 10 mg once daily, FAS, n 24): 0.1284 L/min/m^2
Change in CO at Day 84 or EOT compared to Baseline, Least squares mean ([1]; 10 mg once daily, FAS, n 24): 0.3655 L/min
Change in PAWP at Day 84 or EOT compared to Baseline, Least squares mean ([1]; 10 mg once daily, FAS, n 24): 3.4038 mmHg
Change in SvO2 at Day 84 or EOT compared to Baseline, Least squares mean ([1]; 10 mg once daily, FAS, n 24): 4.7801%
Change in TPR at Day 84 or EOT compared to Baseline, Least squares mean ([1]; 10 mg once daily, FAS, n 24): −1.4175 mmHg min/L
PVR at Week 12/EOT, Mean (std) ([1]; 10 mg once daily, FAS, n 24): 2.555 (1.0607) WU
PVR at Week 12/EOT, Median ([1]; 10 mg once daily, FAS, n 24): 2.644 WU
TPG at Day 84 or EOT, mean (SD) ([1]; 10 mg once daily, FAS, n 24): 12.13 (4.902) mmHg
mPAP (end-expiratory mean line), change from baseline, Least squares mean ([1]; 10 mg once daily, FAS, n 24): −4.2251 mmHg
mRAP, change from baseline, Least squares mean ([1]; 10 mg once daily, FAS, n 24): 0.6222 mmHg
Change in mPAP at Day 84 or EOT compared to Baseline, Least squares mean ([1]; 10 mg once daily, FAS, n 24, second mPAP section of Table 11): −4.8854 mmHg
Change in TPG, Comparison to Placebo, Difference of least squares mean ([1]; 10 mg once daily, FAS, listed as macitentan): −2.7 mmHg
Change in mPAP, Comparison to Placebo, Difference of least squares mean ([1]; 10 mg once daily, FAS, second mPAP section of Table 11): −1.3035 mmHg
reduction in PVR for macitentan vs placebo ([1]; 10 mg once daily, Week 12): 26%
PVR Ratio to Baseline, Mean (std) [1, 4]: 0.585 (0.2280)
PVR Ratio to Baseline, Median [1, 4]: 0.573
patients with postbaseline PVR<3 WU, number [1, 5]: 16
patients with postbaseline PVR<3 WU, percent [1, 5]: 66.7%
PVR (Geometric mean ratio − 1) × 100% [1, 6]: −26.3%
PVR Geometric Mean Ratio, comparison to placebo [1, 6]: 0.7371
PVR (Geometric mean ratio − 1) × 100% [1, 7]: −37.6%
PVR Geometric Mean Ratio, comparison to placebo [1, 7]: 0.6236
PVR (Geometric mean ratio − 1) × 100% [1, 8]: −26.1%
PVR Geometric Mean Ratio, comparison to placebo [1, 8]: 0.7393
PVR Geometric Mean Ratio, comparison to placebo ([1]; PVR calculated by programming, primary analysis, FAS, 10 mg once daily, Week 12, listed as macitentan): 0.74
PVR (Geometric mean ratio − 1) × 100% [1, 9]: −26.1%
PVR Geometric Mean Ratio, comparison to placebo [1, 9]: 0.7386
effect on PVR in words ([1]; early post-LVAD population): significantly reduced PVR
LV filling in words ([1]; from PAWP and CO data): improved LV filling
proportion with postbaseline PVR<3 WU ([1]; patients with baseline PVR<4 WU, n=10): 90.0%
proportion with postbaseline PVR<3 WU ([1]; patients with baseline PVR>4 WU, n=14): 50.0%
NT-proBNP at Week 12/EOT, Mean (std) ([2]; FAS, n 22): 2435.4 (2620.75) ng/L
NT-proBNP at Week 12/EOT, Median ([2]; FAS, n 22): 1098.0 ng/L
NT-proBNP (Geometric mean ratio − 1) × 100% ([2]; Week 12, FAS): 10.9%
NT-proBNP, Comparison to Placebo, Geometric Mean Ratio ([2]; Week 12, FAS): 1.1086
NT-proBNP Ratio to Baseline, Mean (std) ([2]; Week 12: Baseline, FAS, n 22): 0.8 (0.57)
NT-proBNP Ratio to Baseline, Median ([2]; Week 12: Baseline, FAS, n 22): 0.6
WHO FC Improvement (change < 0), number of patients [3, 10]: 10
WHO FC Improvement (change < 0), percent of patients [3, 10]: 40.0%
WHO FC No change (change = 0), number of patients [3, 10]: 13
WHO FC No change (change = 0), percent of patients [3, 10]: 52.0%
WHO FC Worsening (change > 0), number of patients [3, 10]: 2
WHO FC Worsening (change > 0), percent of patients [3, 10]: 8.0%
Change in WHO FC, Odds Ratio Macitentan relative to Placebo (95% Confidence Interval) ([3]; ordered logistic regression adjusting for baseline, higher OR = better change): 1.333 (0.417, 4.255)

From US20240299384A1, “METHODS FOR TREATING PULMONARY HYPERTENSION IN PATIENTS WITH LEFT VENTRICULAR ASSIST DEVICE IMPLANTATION” (ACTELION PHARMACEUTICALS LTD, priority 2021, published 2024)
